The source of these data is patent US20130315834A1, “NANOPROBE COMPRISING GOLD COLLOID NANOPARTICLES FOR MULTIMODALITY OPTICAL IMAGING OF CANCER AND TARGETED DRUG DELIVERY FOR CANCER” (priority 2010, published 2013).

Assay [1] has as its system A-431 cell lines. Description: PDT in cellular model, white light, apoptosis/necrosis staining (Example 7). Type of assay: cell-based, human. The note with it: about 12 hours incubation, broadband white light; hypericin 2-10 μM. On the procedure: After establishing the internalization and delivery capabilities of Hypericin-Au-EGFR probe, the therapeutic potential of the probe by conducting a PDT experiment in a cellular model is examined. Hypericin-Au-EGFR probe and various amounts of hypericin are incubated with A-431 cell lines for about 12 hours and PDT is conducted using a broadband excitation using white light. Post PDT images are recorded using a confocal fluorescence microscopy with differential staining for apoptosis in green (as indicated by the white encircled area) and necrosis in red (as shown by the lighter shade indicated by the white arrow) to assess the PDT effect.

The test system of assay [2] is A-431 cells. As to the kind of experiment: In-vitro uptake of hypericin, confocal fluorescence microscopy. Type of assay: cell-based, human. The note with it: about 3 hours incubation, FIG. 9b. On the procedure: Targeting and localization of the nanoprobes to cellular receptors is assessed using dark field contrast imaging and confocal fluorescence microscopy. Briefly, A-431 cells are incubated with the nanoprobes for about 3 hours at about 37° C. The cells are then washed in PBS, fixed in 2% paraformaldehyde for about 10 mins and mounted in Vectashield fluorescent mounting medium (Vector Laboratories, Burlingame, Calif.). The cells are visualized via dark field illumination system (CytoViva, Auburn, Ala.) attached to a Nikon Eclipse 80i microscope. The in-vitro localization of the nanoprobes is also assessed by exciting the cells using a 488 nm argon laser. Fluorescence emission in the wavelength range of 590-630 nm is split by a dichroic filter and detected through a band pass filter (BP-610 nm; Omega Optical, Brattleboro, Vt.). […]
Confocal fluorescence microscopy is used to study CNE2 cells treated with 2 hypericin and A-431 cells treated with Hypericin-Au-EGFR theragnostic probe for about 6 hours under physiological conditions. […]
Using confocal laser scanning microscope, the in-vitro uptake of hypericin-GNP labeled with anti-EGFR after about 3 hours incubation is also assessed. […] The intensity of hypericin fluorescence following incubation of hypericin alone is greater compared to incubating the cells with bioconjugated hypericin GNP conjugate (FIG. 9b). […]

Assay [3] has as its system CNE2 cells. Described as above. Type of assay: cell-based. Particulars: 2 hypericin, about 6 hours, physiological conditions. On the procedure:
Confocal fluorescence microscopy is used to study CNE2 cells treated with 2 hypericin and A-431 cells treated with Hypericin-Au-EGFR theragnostic probe for about 6 hours under physiological conditions. […] This will be ideal for a probe for diagnosis and therapy.

Regarding `Cc1cc(O)c2c(=O)c3c(O)cc(O)c4c5c(O)cc(O)c6c(=O)c7c(O)cc(C)c8c1c2c(c34)c(c78)c65` [hypericin], the “mode of cell death after PDT” value in assay [1] was “cell death via necrosis”. Further, the “intensity of hypericin fluorescence, hypericin alone compared to bioconjugated hypericin GNP” value in assay [2] is reported as “greater”. In addition, the “hypericin fluorescence in cells” value in assay [3] is “hypericin fluorescence from within the cell”.
